Tested on: Streptococcus mutans ATCC: 25175
Experiment: Minimal inhibitory concentration (method C) of mouthwash formulations
Assay type: cell-based
Conditions: pH 4
Experimental: The minimal inhibitory concentration which is required by a preparation in order to inhibit the growth of a defined microorganism is tested.
5 ml of the given product test solution (optionally doubly concentrated) is mixed with 5 ml of doubly concentrated CSS broth. The tubes are then inoculated with 0.1 ml of a test suspension containing 10^8 microbes.
The assessment is performed after 48 hr incubation at 36° C.±1° C. (C. albicans 30° C.±1° C.).
Further, the action of combinations according to the invention against the caries-causing organism Streptococcus mutans in the mouthwash formulations shown in Table 10 was tested.
The pH of the formulations was adjusted to pH 4.

Molecule: O=C([O-])CC(O)(CC(=O)[O-])C(=O)[O-].O=C([O-])CC(O)(CC(=O)[O-])C(=O)[O-].[Zn+2].[Zn+2].[Zn+2] [TZC, trizinc citrate]
- Activity against Streptococcus mutans: not sufficient

Molecule: PEG-40 macrogol glycerol hydroxystearate [Mghs]
- Activity against Streptococcus mutans: no intrinsic activity

Source: US9446071B2, “Antimicrobially active compositions based on zinc compound, glycerine monoalkyl ether and antioxidant” (L'AIR LIQUIDE SOCIETE ANONYME POUR L'ETUDE ET …, priority 2012, dated 2016)
